Test results reported in patent US9622984B1, “Synthesis of naringenin nanoparticles” (priority 2016, dated 2017).

How the values were obtained:
[1] = tested on: Nile tilapia (Oreochromis niloticus) exposed to 5 ppm CdCl2.H2O; assay: Cadmium concentration in tissues by atomic absorption spectrophotometer after 21 days exposure; type: in vivo; settings: fish exposed to Cd only (5 ppm), control 205.4804±62.9 ng/g
Protocol: (§1) Experimental design was as follows. Adult Nile tilapia, Oreochromis niloticus (n=120 fish), with an average length of 20±4 cm and weight of 150 g-200 g were procured from the local fish farm near Riyadh City. They were checked thoroughly for injury and disease conditions. After washing with 0.01% KMnO4 solution for 15 min, they were divided into five groups each comprising 20 fish and kept in glass tanks (100 L capacity) with non-chlorinated tap water. Prior to the start of the experiment, the fish were acclimated to the food and laboratory conditions with 12 hr dark and 12 hr light cycles, pH range of 6 to 8 and temperature ranging from 20° C. to 24° C. for 15 days. The exposure period was 21 days. Through the entire experimental period the fish were fed commercial pelleted diet at 2% body weight.
(§2) The experimental groups were in replicates as follows. Group I was the negative control which contained dechlorinated tap water with no added CdCl2.H2O and without any antioxidant treatment (designated “Control” in FIGS. 9-10). […]
Cadmium concentration in tissues was determined as follows. […] The concentration of Cd in digested tissue samples were analyzed in an atomic absorption spectrophotometer.
Cadmium accumulation in liver was assessed as follows. […]

HSP70 = HSP70 levels in gills (ELISA kit) after 21 days exposure; type: in vivo, Oreochromis niloticus; settings: fish exposed to Cd only (5 ppm), control 152.8800±11.81554 pg/g
Protocol: as §1, §2
Biochemical analysis was performed as follows. A quantitation of MDA levels in the liver (lipid peroxides) was done by a high performance liquid chromatographic (HPLC) method. […] The levels of hepatic metalothionein levels (MT-2) and HSP70 in […] were also assessed using commercial ELISA kits.
Heat shock protein (HSP70) in gills was determined as follows. […]

Q: `O.[Cd+2].[Cl-].[Cl-]` [Cd, CdCl2.H2O] was tested. Which “Cd concentration in the liver” value [1] did it give?
A: 1113.3320 ± 48.39 ng/g

Q: What about the “HSP70 concentration in gills” value (HSP70) of the same molecule?
A: 251.6600 ± 19.36 pg/g
